Patent publication EP0846119B1, “THIENOPYRIMIDINE DERIVATIVES, THEIR PRODUCTION AND USE AS ENDOTHELIN ANTAGONISTS” (Takeda Chemical Industries, Ltd., priority 1995, dated 1997)

Tested on: coronary artery where ETA is expressed
Test: Inhibition Test on coronary artery where ETA is expressed (ET-1-induced constriction of ring samples)
Details: porcine coronary artery ring, pre-treatment 30 minutes, relative to vehicle group
Method: Inhibition Test on coronary artery where ETA is expressed:
3-mm ring samples for vehicle group and drug-treating group were prepared by removing fat and connective tissue from coronary artery enucleated from porcine heart and obtained from the adjacent portions thereof. The samples, hanging in Magnus tube filled with Krebs solution, were stabilized for 90 minutes under 2 g of static tension. After subjecting the samples to constriction for 10 minutes by potassium chloride (KCl) (60 mM) to obtain the maximum reaction, the samples were then washed and stabilized for 60 minutes. […]
The constriction efficiency (% KCl) of ET-1 was calculated as a relative value to KCl constriction of each sample which was regarded as 100%. Further, the inhibiting efficiency was calculated from the constriction efficiency of the drug-treating group calculated as a relative value to the constriction of the vehicle group which was regarded as 100%.

SMILES | % inhibition (MEAN ± S.E.M.) (n=) artery (ET-1 3nM) (compound 1 µM) | % inhibition (MEAN ± S.E.M.) (n=) artery (ET-1 3nM) (compound 0.1 µM)
CCS(=O)(=O)NCc1c(-c2ccc(OCOC)cc2)sc2c1c(=O)n(CC(=O)O)c(=O)n2Cc1ccccc1SC [11(16), 2,4(1H,3H)-Dioxo-6-(4-methoxymethoxyphenyl)-1-(2-methylthiobenzyl)-5-(ethanesulfonamidomethyl)thieno[2,3-d]pyrimidine-3-acetic acid] | 33.1 ± 8.6 (4) % | –
COCOc1ccc(-c2sc3c(c2CNS(C)(=O)=O)c(=O)n(CC(=O)O)c(=O)n3Cc2ccccc2SC)cc1 [Example 5, 2,4(1H,3H)-dioxo-6-(4-methoxymethoxyphenyl)-1-(2-methylthiobenzyl)-5-(methanesulfonamidomethyl)thieno[2,3-d]pyrimidine-3-aretic acid] | 78.1 ± 11.9 (4) % | 7.6 ± 37.3 (3) %
